Patent US20090176817A1, “Method of Treatment of Diarrhea-Predominant Irritable Bowel Syndrome in a Subject” (priority 2005, published 2009)

Tested on: diarrhea-predominant IBS subjects
Assay: Study S241.3.009: IBS-QOL
Format: in vivo, human
Set-up: IBS-QOL interference with activity, treatment difference / IBS-QOL food avoidance, treatment difference / IBS-QOL dysphoria, treatment difference / IBS-QOL body image, treatment difference / IBS-QOL health worry, treatment difference / IBS-QOL social reaction, treatment difference / IBS-QOL sexual, treatment difference / IBS-QOL relationships, treatment difference: scale not given here
Settings: for Percentage of Subjects Who Worsened from Baseline: IBS-QOL Overall Score: S241.3.009, 2 mg TID, observed value
Source text: Studies S24 1.3.OO6, S24 1.3.0 1 1, and S24 1.3.009 used the following efficacy measurements: • The subjects answered the following three questions with “yes” or “no” using a phone diary at the end of each week: • a) During the last week, did you experience adequate relief of your IBS symptoms, such as abdominal pain, abdominal discomfort, abnormal bowel habits? • b) During the last week, did you experience adequate relief of your abdominal pain and/or discomfort? • c) During the last week, did you experience adequate relief of your abnormal bowel habits? • The subjects rated the following symptoms using the phone diary at the end of each day: • abdominal pain/discomfort (five-point scale); • stool consistency (seven-point Bristol Stool Scale); • stool frequency (number of bowel movements each day); • urgency (five-point scale); • straining (yes or no); • feeling of incomplete defecation (yes or no); • bloating or feeling of abdominal distension (five-point scale). • In Studies S241 A006 and S241.3.009, subjects completed the IBS-QOL Survey at Baseline (Day 1) and at the end of treatment. In Study S24 1.3.0 1 1, subjects completed the IBS-QOL Survey at Baseline (Day 1), at the end of the three-month treatment period, and at the end of rerandomized treatment.
Other secondary efficacy parameters for all three studies included: • Responder rate for the weekly diary questions on adequate relief at each month, where a responder for a month (monthly responder) was defined as a subject who answered the weekly question with “yes” at least twice for that month. The responder rate was the percentage of responders within a treatment group. The all-month responder rate for the weekly diary questions on adequate relief was also evaluated, where an all-month responder was defined as a subject who answered the weekly question with “yes” at least twice for each month. The all-month responder rate was the percentage of all-month responders within a treatment group; • Adequate relief rate for the weekly diary questions was calculated for each subject as the number of weekly assessments with adequate relief (“yes”) divided by the total number of weekly assessments; • Percentage of subjects with adequate relief for the weekly diary questions at each week; • Daily diary questions regarding abdominal pain/discomfort (five-point scale), stool consistency (seven-point scale), stool frequency (number of bowel movements each day), straining (yes or no), urgency (five-point scale), feeling of incomplete evacuation (yes or no), and bloating or feeling of abdominal distention (five-point scale); • QOL data assessed by the IBS-QOL questionnaire; and • Question to determine the interruption of activities.
The IBS-QOL is presented for the ITT population in FIG. 84 (change from Baseline). The IBS-QOL questionnaire was completed only in countries for which there was a validated translation available.

## Cc1nccn1C[C@H]1CCc2c(c3cccc4c3n2CCC4)C1=O [Cilansetron, (R)-(−)-4,5,6,8,9,10-hexahydro-10-[(2-methyl-1H-imidazol-1-yl)methyl]-11H-pyrido-[3,2,1-jk]-carbazol-11-one]
Month 6
  Subjects worsened from Baseline, IBS-QOL Overall Score: 5%
  Percentage of Subjects Who Worsened from Baseline: IBS-QOL Overall Score: 5%
Endpoint (last post-Baseline overall score)
  Percentage of Subjects Who Worsened from Baseline: IBS-QOL Overall Score: 5%
Vs placebo
  IBS-QOL body image, treatment difference: 5.04
  IBS-QOL dysphoria, treatment difference: 8.78
  IBS-QOL food avoidance, treatment difference: 10.09
  IBS-QOL health worry, treatment difference: 5.41
  IBS-QOL interference with activity, treatment difference: 10.85
  IBS-QOL overall score, treatment difference in mean change from Baseline at Endpoint: 7.90
  IBS-QOL relationships, treatment difference: 5.66
  IBS-QOL sexual, treatment difference: 2.93
  IBS-QOL social reaction, treatment difference: 8.70
